Source: patent publication US8252825B2, “Angiotensin II receptor antagonists” (NicOx, priority 2007, dated 2012)

Columns and labels:
[1] = system: conscious telemetered dogs; test: Systolic blood pressure lowering after oral administration to conscious telemetered dogs; type: in vivo, dog; settings: 10 mg/kg
From the text: Compounds 1 and 2 shown below were studied for systolic blood pressure lowering when orally administered to conscious telemetered dogs.

[2] = system: isolated rabbit thoracic aorta preparations; test: Vessel relaxation assay in isolated rabbit thoracic aorta rings; type: cell-based; settings: Oryctolagus cuniculus; rabbit aortic rings precontracted with noradrenaline, functional endothelium
Description: The ability of the compounds to induce vasorelaxation was tested in vitro in isolated rabbit thoracic aorta preparations (Wanstall J. C. et al., Br. J. Pharmacol., 134:463-472, 2001). Male New Zealand rabbits were anaesthetized with thiopental-Na (50 mg/kg, iv), sacrificed by exsanguinations and then the thorax was opened and the aorta dissected. Aortic ring preparations (4 mm in length) were set up in physiological salt solution (PSS) at 37° C. in small organ chambers (5 ml). The composition of PSS was (mM): NaCl 130, NaHCO3 14.9, KH2PO4 1.2, MgSO4 1.2, HEPES 10, CaCl2, ascorbic acid […] and glucose 1.1 (95% O2/5% CO2; pH 7.4). Each ring was mounted under 2 g passive tension. Isometric tension was recorded with a Grass transducer (Grass FT03) attached to a BIOPAC MP150 System. Preparations were allowed to equilibrate for 1 h, and then contracted submaximally with noradrenaline (NA, 1 μM) and, when the contraction was stable, acetylcholine (ACh, 10 μM) was added. A relaxant response to ACh indicated the presence of a functional endothelium. […] When a stable precontraction was reached, a cumulative concentration-response curve to either of the vasorelaxant agents was obtained in the presence of a functional endothelium. Each arterial ring was exposed to only one combination of inhibitor and vasorelaxant. […]
Example 3 and 4 were evaluated for vessel relaxation.

| SMILES | Approximate change in systolic blood pressure (mmHg), 1-6 h ([1]; 1-6 h) | Approximate change in systolic blood pressure (mmHg), 6-12 h ([1]; 6-12 h) | Approximate change in systolic blood pressure (mmHg), 12-18 h ([1]; 12-18 h) | EC50 [2] |
| --- | --- | --- | --- | --- |
| CCCCc1nc(Cl)c(C(=O)OC(C)OC(=O)OCCCC[C@H](CO[N+](=O)[O-])O[N+](=O)[O-])n1Cc1ccc(-c2ccccc2-c2nnn[nH]2)cc1 (some centres unmarked) [Compound 1] | −14 mmHg | −7 mmHg | 3 mmHg |  |
| CCCCc1nc(Cl)c(C(=O)OC(C)OC(=O)OCCC(C)[C@@H](O[N+](=O)[O-])[C@@H](C)O[N+](=O)[O-])n1Cc1ccc(-c2ccccc2-c2nnn[nH]2)cc1 (stereo partly drawn) [Example 3, 1-[({[(4R,5R)-3-methyl-4,5-bis(nitrooxy)hexyl]oxy}carbonyl)oxy]ethyl 2-butyl-4-chloro-1-{[2′-(1H-tetrazol-5-yl)biphenyl-4-yl]methyl}-1H-imidazole-5-carboxylate] |  |  |  | 8.5 µM |
| CCOc1nc2cccc(C(=O)OC(C)(C)OC(=O)OCCC(C)[C@@H](O[N+](=O)[O-])[C@@H](C)O[N+](=O)[O-])c2n1Cc1ccc(-c2ccccc2-c2nnn[nH]2)cc1 (stereo partly drawn) [Example 4, 1-[({[(4R,5R)-3 Methyl-4,5-bis(nitrooxy)hexyl]oxy}carbonyl)oxy]-1-methylethyl 2-ethoxy-1-{[2′-(1H-tetrazol-5-yl)biphenyl-4-yl]methyl}-1H-benzimidazole-7-carboxylate] |  |  |  | 6.4 µM |
